Measured values: patent publication US20230312587A1, “PTERIDINONE COMPOUNDS AND USES THEREOF” (Vertex Pharmaceutical Incorporated, priority 2018, published 2023)
pEC50, pIC50: −log10 of the molar value. Read-outs that look alike come from different tables or passages of the source.

Assays:
[1] = tested on: β-catenin-TCF-mediated reporter transcription activity in Colo 205 cells; assay: Colo 205 reporter assay (TCF/LEF luciferase); assay type: cell-based; conditions: Colo 205 TCF/LEF luciferase reporter, five hours after addition of compound, read-out: TCF reporter Colo205 IC50
Summary of the method: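 Luciferase signal from a TCF/LEF-driven reporter, stably integrated in Colo 205 colon cancer cells, was measured 5 h after compound addition.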

Colo-205 cells = assay: Calcium flux assay (FLIPR Calcium 5); assay type: cell-based; conditions: FLIPR Calcium 5, measured over 36 minutes
Protocol: Compounds described herein induced ER stress by causing intracellular calcium flux. Calcium flux was measured in Colo-205 cells using the FLTPR® Calcium 5 Assay Kit according to manufacter's protocol (Molecular Devices, Cat. #R8186) on a FLIPR3 system (Molecular Devices). Calcium flux is measured over 36 minutes. The Colo-205 calcium flux assay data are summarized in Table 47: A<0.6 μM; 0.6 μM≤B<2.0 μM; 2.0 μM≤C<10.0 μM; D≥10.0 μM.

[2] = target: HEK293 membranes over-expressing WFS-1 (Homo sapiens (Human), UniProt O76024); assay: Radioligand displacement assay (tritiated Compound 136 probe); assay type: binding; conditions: displacement of tritiated Compound 136
HEK293 membranes over-expressing WFS-1, sequence (O76024 whole entry): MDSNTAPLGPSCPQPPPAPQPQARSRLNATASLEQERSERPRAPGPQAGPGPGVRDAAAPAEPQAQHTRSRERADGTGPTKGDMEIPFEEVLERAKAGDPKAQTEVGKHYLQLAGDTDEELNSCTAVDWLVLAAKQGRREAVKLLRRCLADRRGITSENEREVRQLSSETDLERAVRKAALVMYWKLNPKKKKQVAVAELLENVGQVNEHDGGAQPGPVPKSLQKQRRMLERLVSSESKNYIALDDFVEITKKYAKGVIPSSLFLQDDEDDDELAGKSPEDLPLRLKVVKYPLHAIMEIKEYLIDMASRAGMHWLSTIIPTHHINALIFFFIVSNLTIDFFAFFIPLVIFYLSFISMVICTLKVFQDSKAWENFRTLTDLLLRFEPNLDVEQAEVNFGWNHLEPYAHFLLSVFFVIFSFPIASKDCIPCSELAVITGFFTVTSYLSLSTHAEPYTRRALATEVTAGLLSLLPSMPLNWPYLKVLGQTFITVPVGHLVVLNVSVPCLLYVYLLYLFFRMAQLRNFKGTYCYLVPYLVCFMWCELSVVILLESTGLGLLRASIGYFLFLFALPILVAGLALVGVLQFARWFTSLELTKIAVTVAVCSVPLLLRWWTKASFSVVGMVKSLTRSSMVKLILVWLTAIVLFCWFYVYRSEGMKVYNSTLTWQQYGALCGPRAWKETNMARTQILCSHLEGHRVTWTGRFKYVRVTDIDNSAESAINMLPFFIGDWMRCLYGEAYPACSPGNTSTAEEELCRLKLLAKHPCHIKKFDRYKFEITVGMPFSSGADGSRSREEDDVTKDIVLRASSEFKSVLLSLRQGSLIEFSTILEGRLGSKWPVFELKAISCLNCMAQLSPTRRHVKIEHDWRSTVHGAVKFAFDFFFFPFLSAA
Protocol: Cell pellets were re-suspended in 15 times packed cellular volume in 4° C. hypotonic lysis buffer (10 mM HEPES, pH 7.5 containing 1×Protease inhibitor, 0.5 mM EDTA and 2 mM DTT). Re-suspended cells were homogenized with 6-8 strokes in a dounce homogenizer kept on ice. Lysates were centrifuged at 500×G for 15 minutes at 4° C. without brake to decelerate rotor. Following centrifugation, remove the supernatant to a fresh tube and place on ice (Supernatant 1). Repeat the above steps on the lysed cell pellet using 0.5 the original volume of hypotonic lysis buffer and remove the 500× G supernatant (Supernatant 2) and combine with Supernatant 1. Transfer the combined supernatants to a 45-Ti ultracentrifuge tube and centrifuge at 100,000× G for 30 minutes. Following ultracentrifugation, carefully remove the supernatant and discard. Resuspend the 100,000× G pellet in cold resuspension buffer (10 mM HEPES, pH 7.5, 300 mM NaCl containing 1× Protease inhibitor, 1× EDTA and 2 mM DTT). Centrifuge sample at 500× G for 10 minutes with no brake and remove any cloudy, flocculent material. Resuspend pellet in resuspension buffer to approximately 2 mg/mL of protein concentration for use in radioligand binding assay and immunoblotting.
The binding affinities of compounds were determined by measuring the competitive displacement of a tritiated Compound 136 probe from purified HEK293 membranes over-expressing WFS-1. The data for the radioligand displacement assay are summarized in Table 47: A<0.06 μM; 0.06 μM≤B<0.6 μM; 0.6 μM≤C<3.0 μM; D≥3.0 μM.
The probe Kd was determined by titrating tritiated probe under the standard assay conditions plus and minus excess unlabeled probe and fitting the resulting data to a “One site—Total and nonspecific binding” model in Graphpad Prism, version 6.0, San Diego, CA, US. Initially, 0.25 μl of compound dissolved in DMSO at varying concentrations was dispensed to a 384 well plate. Membrane and probe were both prepared at 2× their final concentration in 1× assay buffer as described above. 25 μL of membrane was added to the wells and incubated for 10 minutes. 25 μL of diluted probe was then added to the wells. The assay was incubated for 90 minutes at room temperature. The entire assay volume was then transferred to Millipore GF/B 384-well plates pretreated with 15 μL 0.5% PEI. The filter plates were washed 3× with 75 μL 25 mM TRIS, ph7.5, 0.1% BSA and then dried overnight. Following addition of 45 μL UltimaGold scintillant, the samples were counted in a Perkin Elmer Topcount. The radioactivity remaining is a measure of bound probe. From the bound probe vs concentration of compound titration curve, the IC50 is determined by fitting the data to a standard 3 parameter IC50 model using either Graphpad Prism, version 6.0, San Diego, CA, US, or using GeneData Analyzer, Basel, Switzerland.

[3] = tested on: Colo205-TCF/LEF-Luciferase (Luc) tumor; assay: In vivo inhibition of TCF/LEF reporter activity in Colo-205 tumors; design: concentration or dose not given beside the values; conditions: TCF/LEF luciferase reporter in Colo-205 tumors, nu/nu mice, oral gavage
Protocol: Colo205-TCF/LEF-Luciferase (Luc) tumor cells were expanded in complete DMEM cell culture media [DMEM (Life Technologies, product #11960-051) media supplemented with 10% FBS (Hyclone, catalog #SH30071.03), antimycotic/antibiotic (Life Technologies, product #15240-062), and Glutamax (Life Technologies, product #35050-061)] with 1 ug/ml puromycin. After reaching confluency/high density, the loosely attached cells in media were transferred from the flask to 50 ml conical tubes. Tumor cells adhered to plastic were detached with trypsin and combined with cells in the conical tubes. The tumor cells were triturated, counted, and pelleted by centrifugation. Cell pellets were resuspended in 0.9% injectable saline (6×10^7 cells/ml). A 50 ul volume (3×10^6 cells) was injected subcutaneously in the flanks of 4-6 wk old female nu/nu mice (Charles River Laboratories). Approximately 13-16 days after implantation, tumors between 200-500 mm^3 were selected (based on caliper measurements and applying the formula […]) and randomized into groups of n=4. Mice were dosed by oral gavage with compound dissolved in 1:3:5:1 EtOH:DMSO:PEG-400:H2O at a rate of 10 ml/kg or 1:3:5:1 EtOH:DMSO:PEG-400:H2O alone (Vehicle Control). Tumors were collected from mice euthanized by CO2 inhalation and snap frozen in liquid nitrogen. Tumors were stored in a −80 degrees C. freezer until they were processed.
Tumors were thawed on ice and homogenized in cold Lysis Buffer (20 mM Tris-HCl (pH 7.5), 150 mM NaCl, 1 mM Na2EDTA, 1 mM EGTA, 1% Triton, 2.5 mM sodium pyrophosphate, 1 mM beta-glycerophosphate, 1 mM Na3VO4, 1 μg/ml leupeptin, 0.05% SDS) using a closed tissue grinder system (Fisher Scientific, Cat #02-542-09) on ice according to manufacturer's instructions. For 100 mg of tumor, 500 uL of Lysis Buffer was used. Tumor lysate was transferred to a pre-chilled microcentrifuge tube and centrifuged at 10,000×g for 10 minutes at 4 degrees C. Supernatant was transferred to a new pre-chilled microcentrifuge tube and was used immediately for analysis of protein content and luciferase activity.
Protein content of tumor lysate supernatant was determined using the BCA assay (Life Technologies Cat #23225). Luciferase activity of tumor lysate supernatant was determined by addition of Steady-Glo luminescence reagent (Promega, Cat #E2550) according to manufacturer's instructions and measurement on a Pherastar luminescence plate reader (BMG Labtech). Luciferase activity was normalized to protein content.

HepG2 XBP1(u)-Luc cells = assay: HepG2 XBP1 reporter assay; assay type: cell-based; conditions: 6 h
Protocol: HepG2 hepatoma cells were transduced with a retrovirus encoding the cDNA for unspliced (u) XBP1, which contains a non-processed intron, fused to the cDNA for firefly luciferase. Upon induction of ER stress, the non-processed intron of XBP1(u) is spliced out by active IRE1alpha endonuclease. The resulting spliced (s) XBP1 is now in frame with luciferase which causes the production of active luciferase protein, resulting in bioluminescence
HepG2 XBP1(u)-Luc cells were plated […] Cultured cells with a stably transfected reporter construct were plated at approximately 30,000 cells per well into 96 well multi-well plates for twenty four hours. The testing compounds were then added to the wells in 3-fold serial dilutions using a twenty seven micromolar top concentration. A series of control wells for each cell type received only compound solvent. Six hours after the addition of compound, reporter activity for luciferase was assayed, by addition of the SteadyGlo luminescence reagent (Promega). The reporter luminescence activity was measured using Pherastar plate reader (BMG Labtech). Readings was normalized to DMSO only treated cells, and normalized activities were then used in the IC50 calculations. The HepG2 XBP1 reporter assay data are summarized in Table 47: A<0.6 μM; 0.6 μM≤B<2.0 μM; 2.0 μM≤C<10.0 μM; D≥10.0 μM.

pIC50 [1] | pEC50 (Colo-205 cells) | pIC50 [2] | pIC50 ([1]; Homo sapiens, COLO 205, 5 h) | pIC50 (HepG2 XBP1(u)-Luc cells; Homo sapiens) | pEC50 (Colo-205 cells; Homo sapiens, COLO 205, 0.6 h) | pIC50 (HepG2 XBP1(u)-Luc cells) | Molecule | Percent Remaining Activity at 8 hrs after Dosing [3] [%]
– | – | – | > 6.52 | – | – | – | CO[C@H](C)[C@H]1C(=O)Nc2c(C)nc(NCc3cnn(Cc4ccc(F)cc4)c3)nc2N1C [Compound 658, (S)-2-(((1-(4-fluorobenzyl)-1H-pyrazol-4-yl)methyl)amino)-7-((R)-1-methoxyethyl)-4,8-dimethyl-7,8-dihydropteridin-6(5H)-one] | 62
– | – | – | > 6.52 | – | – | – | COCC[C@H]1C(=O)Nc2c(C)nc(NCc3cnn(Cc4cc(C(F)(F)F)nn4C)c3)nc2N1C [Compound 678, (S)-7-(2-methoxyethyl)-4,8-dimethyl-2-(((1-((1-methyl-3-(trifluoromethyl)-1H-pyrazol-5-yl)methyl)-1H-pyrazol-4-yl)methyl)amino)-7,8-dihydropteridin-6(5H)-one] | 75
– | – | 6.22 to 7.22 | > 6.52 | > 6.22 | > 6.22 | – | CC[C@H]1C(=O)Nc2c(C)nc(NCc3cnn(C4CC(F)(F)C4)c3)nc2N1C [Compound 795, (S)-2-(((1-(3,3-difluorocyclobutyl)-1H-pyrazol-4-yl)methyl)amino)-7-ethyl-4,8-dimethyl-7,8-dihydropteridin-6(5H)-one] | –
> 6.52 | > 6.22 | 6.22 to 7.22 | – | – | – | > 6.22 | Cc1nc(N[C@H]2C[C@@H](COc3cnc(C(F)(F)F)nc3)C2)nc2c1NC(=O)[C@H](C(C)C)N2C [Compound 1417, (S)-7-isopropyl-4,8-dimethyl-2-(((1s,3R)-3-(((2-(trifluoromethyl)pyrimidin-5-yl)oxy)methyl)cyclobutyl)amino)-7,8-dihydropteridin-6(5H)-one] | –

The remaining lines, values behind:

Molecule | pIC50 [1] | pEC50 (Colo-205 cells) | pIC50 [2] | pIC50 ([1]; Homo sapiens, COLO 205, 5 h) | pIC50 (HepG2 XBP1(u)-Luc cells; Homo sapiens) | pEC50 (Colo-205 cells; Homo sapiens, COLO 205, 0.6 h) | pIC50 (HepG2 XBP1(u)-Luc cells) | Percent Remaining Activity at 8 hrs after Dosing [3] [%]
Cc1nc(N[C@H]2C[C@@H](COc3ccc(C(F)(F)F)nc3)C2)nc2c1NC(=O)[C@H](C(C)C)N2C (relative stereo) [Compound 551, (S)-7-isopropyl-4,8-dimethyl-2-((cis-3-(((6-(trifluoromethyl)pyridin-3-yl)oxy)methyl)cyclobutyl)amino)-7,8-dihydropteridin-6(511)-one] | > 6.52 | > 6.22 | > 7.22 | – | – | – | – | 20
Cc1nc(N[C@H]2C[C@H](Oc3cc(F)c(F)cc3F)C2)nc2c1NC(=O)[C@H](C)N2C [Compound 292, (7S)-4,7,8-trimethyl-2-((trans 3-(2,4,5-trifluorophenoxy)cyclobutyl)amino)-7,8-dihydropteridin-6(5H)-one] | – | – | > 7.22 | > 6.52 | > 6.22 | > 6.22 | – | –
CO[C@H](C)[C@H]1C(=O)Nc2c(C)nc(N[C@H]3C[C@@H](COc4ccc(C(F)(F)F)nc4)C3)nc2N1C [Compound 643, (S)-7-((R)—1-methoxyethyl)-4,8-dimethyl-2-((cis-3-(((6-(trifluoromethyl)pyridin-3-yl)oxy)methyl)cyclobutyl)amino)-7,8-dihydropteridin-6(5H)-one] | – | – | > 7.22 | > 6.52 | – | > 6.22 | – | 22
CO[C@H](C)[C@H]1C(=O)Nc2c(C)nc(NCc3cnn(Cc4cc(C(F)(F)F)nn4C)c3)nc2N1C [Compound 656, (S)-7-((R)-1-methoxyethyl)-4,8-dimethyl-2-(((1-((1-methyl-3-(trifluoromethyl)-1H-pyrazol-5-yl)methyl)-1H-pyrazol-4-yl)methyl)amino)-7,8-dihydropteridin-6(511)-one] | > 6.52 | – | – | – | – | – | – | 51
(S)-7-ethyl-2-(((1-((2-isopropyloxazol-5-yl)methyl)-1H-pyrazol-4-yl)methyl)amino)-4,8-dimethyl-7,8-dihydropteridin-6(5H)-one [Compound 513] | > 6.52 | – | – | – | – | – | – | 90
